In data set [1] the test system is B. subtilis 168a. The experiment in a line: MIC/MBC microbroth dilution (EUCAST). The conditions noted are these: Bacillus subtilis, 168A; for MIC: read-out: MIC. Format: cell-based, Bacillus subtilis. On the procedure: (§1) Minimum inhibitory concentrations (MIC values) were obtained using the microbroth dilution method as stated in the EUCAST guidelines. Tests were conducted on cation adjusted Mueller–Hinton broth (caMHB) or agar (caMHA). These were prepared and stored following the manufacturer’s guidelines. Biological organisms were prepared via growth on either Luria–Bertani (LB) or cation adjusted Mueller–Hinton agar plates. These were grown for 24 h at 37 °C, except for Micrococcus luteus where MICs took longer to grow and as a consequence were read after 48 h once a clear positive control could be observed. For the MIC experiment, the bacteria were prepared using the McFarland 0.5 standard and diluted 1 in 100 or 1 in 10 in caMHB following EUCAST and CSLI guidelines for the preparation of bacteria. Testing of the compounds using the microbroth dilution method took place in 96-well plates. Serial 2-fold dilutions of compounds in caMHB covering a range from 256 µg/mL to 0.25 µg/mL were prepared. Bacteria preparations (McFarland) were added to the compound dilutions, further halving the compound concentrations. The plate was then incubated for 18 h at 37 °C. Controls for the MIC experiments included a bacterial growth (positive) control of bacteria and caMHB only and a media only (negative) control. After incubation, the plates were read, whereby the positive control of bacteria was visible and the negative control was clear of contamination. The last clear well, where there is no growth of bacteria, was counted as the MIC value. […] The lowest concentration without any bacterial growth was counted as the MBC value. The following pathogens were used: Pseudomonas aeruginosa NCTC 13437, Escherichia coli NCTC 13353, Bacillus subtilis 168a, Serratia marcescens NCTC 9940, Micrococcus luteus ATCC 10240, Staphylococcus aureus JE2 USA 300, Acinetobacter baumannii ATCC 19606, and Klebsiella pneumoniae ATCC 700603. A concentration range of 256 µg/mL to 0.25 µg/mL of a combination of ciprofloxacin and meropenem against E. coli 25922 was used as an antibiotic control to ensure correct dilution and performance of the assay.
(In general: In broth dilution the organism is exposed to a series of concentrations in liquid medium.)

Data set [2] relates to E. coli NCTC 13353. The experiment in a line: MIC/MBC microbroth dilution (EUCAST). Format: cell-based, Escherichia coli. Particulars: Escherichia coli; for MBC: NCTC13353; for MIC: NCTC13353, read-out: MIC. On the procedure:
as §1

Data set [3] concerns A. baumannii ATCC 19606. The experiment in a line: MIC/MBC microbroth dilution (EUCAST). The conditions noted are these: Acinetobacter baumannii; for MBC: ATCC19606; for MIC: ATCC19606, read-out: MIC. Format: cell-based, Acinetobacter baumannii. The procedure: as §1
Data set [4] is described as follows: Parallel artificial membrane permeability assay (PAMPA). The conditions noted are these: PAMPA, pH 7.4, Pe, PBS pH 7.4, 200 µM, 5 h, room temperature. On the procedure: With the high-throughput PAMPA the newly synthesized compounds were tested for their passive permeability through cell membranes without the influence of efflux pumps or transporter proteins. The assay was performed using a Corning® Gentest^TM Precoated PAMPA Plate System (Corning, Glendale, AZ, USA) with 96-well polystyrene plates. The bottom of the acceptor plate consists of a porous membrane, whereby the pores are lined with a lipid–oil–lipid triple layer. Stock solutions of each test compound at 10 mM were prepared in DMSO or methanol and diluted with phosphate-buffered saline (PBS at a pH of 7.4) to a final concentration of 200 µM. […] The donor plate (bottom plate) was filled with the compound solutions, whereby all compounds were tested in quadruplicates. Each well of the acceptor plate (top plate) was filled with PBS buffer. Donor and acceptor plates were combined and incubated at room temperature for 5 h. After that, the plates were separated and 150 µL of each well of both plates were transferred to 96-well UV plates (Greiner Bio-One). Absorption at different wavelengths covering a range from 200 to 300 nm was measured using a SpectraMax M3 UV plate reader. […] The plates were analyzed at the wavelength where the R2 value of the calibration curve was higher than 0.99 [47].
Recovery of compounds from donor and acceptor wells (mass retention) was calculated as shown in the equation below. Data were only accepted when recovery exceeded 70%. The equation is as follows:(3) R=1−[cDt×VD+cAt×VA]/(c0×VD) where
In general terms: PAMPA measures passive passage across an artificial lipid membrane.

Data set [5] can be described thus: Resazurin-based in vitro cytotoxicity with L-6 cells. The conditions noted are these: rat. Format: cell-based, rat. On the procedure:
Serial drug dilutions of eleven 3-fold dilution steps covering a range from 100 to 0.002 µg/mL were prepared. After 70 h of incubation, the plates were inspected under an inverted microscope to assure growth of the controls and sterile conditions. […] The plates were read with a Spectramax Gemini XS microplate fluorometer (Molecular Devices Cooperation, Sunnyvale, CA, USA) using an excitation wavelength of 536 nm and an emission wavelength of 588 nm. IC50 values were calculated by linear regression from the sigmoidal dose–inhibition curves using SoftmaxPro software Version 8.2.1 (Molecular Devices Cooperation, Sunnyvale, CA, USA). Podophyllotoxin (Sigma P4405) was used as control.

The test system of data set [6] is S. aureus JE2 USA 300. The experiment in a line: MIC/MBC microbroth dilution (EUCAST). Format: cell-based. The conditions noted are these: Staphylococcus aureus, USA300, S. aureus JE2 USA 300. The procedure:
as §1

For data set [7], the system named is S. marcescens NCTC 9940. Kind of data set: MIC/MBC microbroth dilution (EUCAST). Format: cell-based. The conditions noted are these: Serratia marcescens, NCTC9940. On the procedure: as §1
Data set [8] has as its system K. pneumoniae ATCC 700603. Kind of data set: MIC/MBC microbroth dilution (EUCAST). The conditions noted are these: Klebsiella pneumoniae, ATCC700603. Format: cell-based. On the procedure: as §1
Data set [9] has as its system P. aeruginosa NCTC 13437. Kind of data set: MIC/MBC microbroth dilution (EUCAST). Format: cell-based. Particulars: Pseudomonas aeruginosa, NCTC13437. On the procedure: as §1
A short description of data set [10]: Resazurin-based in vitro cytotoxicity with HepG2 cells. The conditions noted are these: HepG2 cells; human hepatocarcinoma cells, 48 h. Format: cell-based, human. On the procedure:
The HepG2 cells were washed with DPBS (Dulbecco’s PBS without calcium and magnesium, Gibco, Cat #21600-044) and trypsinized with trypsin solution in DPBS. Trypsinization was stopped by adding culture medium, and after being stained with Trypan Blue (SORS Ukraine) cells were counted using a counting chamber (Hausser Scientific, Cat #3500). The cell suspension was placed in a falcon tube containing plating medium DMEM/High glucose with 1% fetal bovine serum, 100 units/mL penicillin, and 100 µg/mL streptomycin. Cells at a density of 250,000 cells/mL were seeded in sterile 384-well plates (Greiner Bio-One, Cat #781091) in a volume of […] and incubated at 37 °C and 5% CO2. Serial dilutions of ten 3-fold dilution steps of test and reference compounds covering a range from 100.0 to 0.005 µM were added to the wells, followed by incubation at 37 °C and 5% CO2 for 48 h. Then, resazurin (50 µM final concentration) was added and plates were incubated for another 3 h. The plates were read with a SpectraMax microplate reader (Molecular Devices Cooperation, Sunnyvale, CA, USA)) using an extinction wavelength of 555 nm and an emission wavelength of 570 nm. IC50 values were calculated using GraphPad Prism 9.0 charting software. Doxorubicin (Sigma Aldrich D1515) was used as control.
For orientation: Alamar Blue is a resazurin reagent that responds to reducing activity.

Data set [11] concerns P. falciparum NF54. Kind of data set: In vitro microplate assay against P. falciparum NF54 (3H-hypoxanthine incorporation). Format: cell-based, Plasmodium falciparum. Particulars: Plasmodium falciparum, NF54, chloroquine-sensitive strain NF54, erythrocytic stages; read-out: P.f.NF54 IC50. The procedure: Serial drug dilutions of eleven 3-fold dilution steps covering a range from 100 to 0.002 µg/mL were prepared. […] After 48 h of incubation time, 0.05 mL of ^3H-hypoxanthine (=0.5 µCi) was added to each well of the plate. The plates were incubated for a further 24 h under the same conditions. Plates were then harvested using a BetaplateTM cell harvester (Wallac, Zurich, Switzerland). Red blood cells were transferred onto a glass fiber filter and then washed with distilled aqua demin. The dried filters were inserted into a plastic foil with 10 mL of scintillation fluid and counted in a BetaplateTM liquid scintillation counter (Wallac, Zurich, Switzerland). IC50 values were calculated from sigmoidal inhibition curves by linear regression using Microsoft Excel. […] Louis, MO, USA) was used as control.

A word on the MBC: it is the smallest concentration meeting the test's criterion for killing. The MIC is the lowest concentration found to suppress growth. Broadly, the Papp is the rate of passage across a membrane or cell layer, normalised by area and donor concentration. Higher therefore signals ready permeation. One may read the IC50 as the point on the concentration scale where inhibition reaches its midpoint. On to `O=C(Nc1cccc(N2CCNCC2)c1)c1cccc(C(F)(F)F)c1Oc1ccc(F)cc1` [Compound 56, 2-(4-Fluorophenoxy)-N-[3-(piperazin-1-yl)phenyl]-3-(trifluoromethyl)benzamide], for which the MBC in [1] is 256 µg/mL; in data set [2], over 256 µg/mL; in [3], 256 µg/mL; in data set [6], 256 µg/mL; in [7], over 256 µg/mL; in data set [8], over 256 µg/mL. Moreover, the minimum bactericidal concentration (MBC) in data set [9] was over 256 µg/mL. The minimal inhibitory concentration (MIC) in data set [1] was 128 µg/mL; in data set [2], 256 µg/mL; in data set [3], 128 µg/mL; in [6], 256 µg/mL; in [7] it was 256 µg/mL; in data set [8] it was over 256 µg/mL. The minimum inhibitory concentration (MIC) in data set [9] stood at 256 µg/mL. The compound also showed an apparent permeability (Papp) at 5 h, 200 µM in data set [4] of 7.03 ×10⁻⁶ cm/s. Besides, in data set [5], the midpoint of inhibition, the IC50 at 70 h, lay at 34.2 µM. In data set [10], this compound registered an IC50 at 48 h of 12.7 µM. Also, in data set [11], the IC50 stood at 5.45 µM.

`O=C(Nc1ccc(N2CCNCC2)cc1)c1cccc(C(F)(F)F)c1Oc1ccc(F)cc1` [Compound 57, 2-(4-Fluorophenoxy)-N-[4-(piperazin-1-yl)phenyl]-3-(trifluoromethyl)benzamide]: the minimal bactericidal concentration (MBC) in data set [1] was 256 µg/mL; in [2], over 256 µg/mL; in [3], 256 µg/mL; in [6], 128 µg/mL; in [7], over 256 µg/mL; in data set [8] it was 128 µg/mL. Moreover, the minimum bactericidal concentration (MBC) in data set [9] is over 256 µg/mL. Besides, the minimal inhibitory concentration (MIC) in [1] is 128 µg/mL; in [2], over 256 µg/mL; in data set [3], 128 µg/mL; in data set [6] it was 128 µg/mL; in data set [7] it was over 256 µg/mL; in [8], 128 µg/mL. For the same compound, in data set [9], the MIC was over 256 µg/mL. For the same compound, the Papp at 5 h, 200 µM in data set [4] came out at 6.89 ×10⁻⁶ cm/s. The same compound displayed a concentration for half-maximal inhibition (IC50) at 70 h in [5] of 37.3 µM. Inhibition in data set [10] was half-maximal at 10.4 µM (IC50 at 48 h). The IC50 in data set [11] is 3.15 µM.

As for `O=C(Nc1ccc(N2CCNCC2)cc1)c1ccccc1Oc1ccc(F)cc1` [Compound 59, 2-(4-Fluorophenoxy)-N-[4-(piperazin-1-yl)phenyl]benzamide], the MBC in data set [1] is 128 µg/mL; in [2] it was over 256 µg/mL; in data set [3], 256 µg/mL; in [6] it was 128 µg/mL; in data set [7], over 256 µg/mL; in [8] it was 128 µg/mL. Further, the MBC in data set [9] was over 256 µg/mL. Moreover, the minimum inhibitory concentration (MIC) is 128 µg/mL in data set [1]; 256 µg/mL in data set [2]; 256 µg/mL in data set [3]; 128 µg/mL in data set [6]; over 256 µg/mL in data set [7]; 128 µg/mL in data set [8]. In data set [9], the MIC was over 256 µg/mL. In data set [4], the apparent permeability (Papp) at 5 h, 200 µM worked out at 14.2 ×10⁻⁶ cm/s. The compound also gave an IC50 at 70 h in [5] of 25.4 µM. Further, in data set [10], the midpoint of inhibition, the IC50 at 48 h, lay at 38.9 µM. The half-maximal inhibitory concentration (IC50) in data set [11] turned out to be 2.04 µM.

Take `O=C(Nc1ccc(N2CCNCC2)cc1)c1cccc(F)c1Oc1ccc(F)cc1` [Compound 60, 3-Fluoro-2-(4-fluorophenoxy)-N-[4-(piperazin-1-yl)phenyl]benzamide]: the MBC in data set [1] is 256 µg/mL; in data set [2], over 256 µg/mL; in [3] it was over 256 µg/mL; in data set [6], over 256 µg/mL; in data set [7] it was over 256 µg/mL; in [8], over 256 µg/mL. In data set [9], the minimal bactericidal concentration (MBC) was over 256 µg/mL. Moreover, the minimum inhibitory concentration (MIC) was 256 µg/mL in [1]; over 256 µg/mL in [2]; over 256 µg/mL in [3]; over 256 µg/mL in [6]; over 256 µg/mL in data set [7]; over 256 µg/mL in data set [8]. Also, the MIC in [9] is over 256 µg/mL. The same compound returned a Papp at 5 h, 200 µM in data set [4] of 11.7 ×10⁻⁶ cm/s. Half-maximal inhibition in data set [5] (IC50 at 70 h) required 40.8 µM. In data set [10], this compound registered an IC50 at 48 h of 26.2 µM. For the same compound, the IC50 in data set [11] stood at 4.7 µM.

The values are drawn from paper PMC12298624, “Anti-Infective Properties, Cytotoxicity, and In Silico ADME Parameters of Novel 4′-(Piperazin-1-yl)benzanilides” (Pharmaceuticals, 2025).
